Measurements from patent US20260193317A1, “COMBINATION THERAPY WITH ACTRIIB RECEPTOR VARIANTS AND GLP-1 AGONISTS” (35PHARMA Inc., priority 2023, published 2026).

Key:
[1] = target: T1, activin A (Homo sapiens, UniProt P08476); assay: Small-scale activin A ELISA with CHO supernatants; settings: 1 μg/mL protein, 30 ng/mL activin A, loss of signal = binding
T1 sequence (P08476 311-426): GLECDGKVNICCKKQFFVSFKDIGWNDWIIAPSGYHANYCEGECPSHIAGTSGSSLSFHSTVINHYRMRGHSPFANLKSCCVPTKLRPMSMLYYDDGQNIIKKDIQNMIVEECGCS
Method: (§1) Small-scale testing of ActRIIB-ECD fusion proteins. Additional investigation of a series of exemplary agents was performed using proteins expressed in CHO cells. Briefly, DNA encoding the ActRIIB-ECD-Fc fusion constructs was transfected in cells seeded in 12-well plates in a final volume of 1 ml. After 7 days, the supernatant was harvested, clarified, and the amount of expressed protein in each well was quantified using standard methods. The potency of each agent for inhibition of activin A, BMP-9 and BMP-10 was determined in three separate assays.
The next day, the plate was washed three times with buffer (Biolegend #421601). […] Expressed proteins in the supernatants described above were diluted to 2 μg/mL in assay diluent (0.5% BSA, 0.05% tween-20 in PBS), mixed 1:1 with recombinant human activin A (R&D #338-AC, 60 ng/mL, diluted in assay diluent). Complexes were immediately added to the 96-well plate in technical duplicates and incubated for 1 h at RT (concentration of expressed protein and activin A on the plate were 1 μg/mL and 30 ng/mL, respectively). […] In this assay, a loss of signal indicates binding of the exemplary agent to activin A, which prevents activin A binding to the anti-activin A antibody on the plate. Results are expressed as a % of the signal obtained with wild-type ActRIIB-Fc (P75).

[2] = target: T2, BMP-9 (Homo sapiens, UniProt Q9UK05); assay: Small-scale BMP-9 ELISA with CHO supernatants; assay type: binding; settings: BMP-9 10 ng/mL
T2 sequence (Q9UK05 320-429): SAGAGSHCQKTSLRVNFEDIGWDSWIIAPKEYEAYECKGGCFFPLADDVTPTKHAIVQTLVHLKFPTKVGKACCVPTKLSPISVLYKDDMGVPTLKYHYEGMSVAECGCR
Method: as §1
The next day, the plate was washed three times. […] Expressed proteins in the supernatants were diluted 1 in 2 in assay diluent (0.5% BSA, 0.05% tween-20 in PBS) and 100 μl was added to the 96-well plate in technical duplicates. After a 1.5-hour incubation at RT, the plate was washed three times. […] In this assay, a loss of signal indicates less binding of the exemplary agent to BMP-9. Results are expressed as a % of the signal obtained with wild-type ActRIIB-Fc (P75).

[3] = target: T3, BMP-10 (Homo sapiens, UniProt O95393); assay: Small-scale BMP-10 BMP-reporter cell-based assay, single concentration; settings: […] protein, 40 ng/mL BMP-10
T3 sequence (O95393 317-424): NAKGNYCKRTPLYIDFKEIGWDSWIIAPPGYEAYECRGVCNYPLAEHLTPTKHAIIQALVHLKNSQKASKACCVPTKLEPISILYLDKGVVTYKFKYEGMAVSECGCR
Method: Characterization of the BMP-9 and BMP-10 inhibition potency (IC50) of the fusion proteins was performed using a second cell-based reporter assay. Human hepatic HepG2 cells were transfected with a SEAP-encoding plasmid, in which SEAP expression is under the control of the murine Id1 promoter. A stable pool was generated from this transfection. Cells were grown in EMEM, containing 10% heat-inactivated FBS and 200 μg/mL zeocin (hereafter, “HepG2 growth medium”). […] For all assays, cells were seeded in 96-well plates at a confluence of 100,000 cells per well in HepG2 growth medium. Cells were left to attach for 10 minutes at RT prior to being transferred to a 37° C. incubator (5% CO2) overnight. […] At the end of the incubation, absorbance was read at 650 nm. […]
Small-scale testing of ActRIIB-ECD fusion proteins. […] After 7 days, the supernatant was harvested, clarified, and the amount of expressed protein in each well was quantified using standard methods. The potency of each agent for inhibition of activin A, BMP-9 and BMP-10 was determined in three separate assays.
To determine potency on BMP-10, the same BMP-reporter cell line was used as described above. […] Results are expressed as a % of the signal obtained with the cytokine alone. […]

[4] = target: T3, BMP-10; assay: BMP-10 binding by bio-layer interferometry (BLI); settings: single concentration 12.5 nM BMP-10
Method: To determine potency on BMP-10, the same BMP-reporter cell line was used as described above. A final concentration of 2.5 nM of each expressed protein was tested in the presence of 40 ng/mL of BMP-10 (R&D #2926-BP). In this assay, a loss of signal indicates neutralization of BMP-10 by the exemplary agent. Results are expressed as a % of the signal obtained with the cytokine alone. A separate assay was used to estimate BMP-10 binding, using bio-layer interferometry (BLI) on a Gator® Plus instrument (Gator Bio, Palo Alto, USA). An anti-Human IgG Fc Gen II probe (#160024, Gator Bio) was loaded with expressed proteins in CHO supernatants, following which BMP-10 binding kinetics (single concentration, 12.5 nM) were assessed.

[5] = test system: DIO mice; assay: Body composition in high fat diet mice, alone and in combination with incretin mimetics; assay type: in vivo; settings: for Fat mass (% change from baseline) / Lean mass (% change from baseline): as E44, NMR
Method: Experiments were performed in vivo to investigate the potential for additive or synergistic effects between exemplary ActRIIB-ECD polypeptide constructs and incretin mimetics.

[6] = Coformulation of P1372 and semaglutide: weight and body composition in mice (FIG. 18); assay type: in vivo
[7] = Single subcutaneous injection in CD-1 mice: body weight; assay type: in vivo; settings: CD-1 male mice, single s.c. injection; P1229 50 mg/kg, semaglutide 2 mg/kg
[8] = test system: follicle-stimulating hormone (FSH); assay: Circulating FSH levels in CD-1 mice; assay type: in vivo; settings: single s.c. injection, P1229 50 mg/kg, semaglutide 2 mg/kg
Method: Finally, circulating FSH levels were assessed throughout the study (FIG. 20D). […] This confirms that the expected pharmacodynamic effect of P1229 was not altered in the context of the co-formulation.

| Substance | activin A binding, ELISA signal relative to P75 [1] | BMP-9 binding, ELISA signal relative to P75 [2] | BMP-10 neutralization, signal relative to BMP-10 alone [3] | BMP-10 KD by bio-layer interferometry [4] | Body weight (% change from baseline) ([5]; DIO mice, 21 days s.c., P1307 20 mg/kg weekly, P1229 40 mg/kg twice weekly, semaglutide 40 μg/kg daily, tirzepatide 45 μg/kg daily, alone or combined) [%] | visceral, epididymal, pericardial, peri-renal, and retroperitoneal white adipose tissue weights ([5]; DIO mice, D21) | gastrocnemius and tibialis anterior weights ([5]; DIO mice, D21, P1229 with or without caloric restriction) | Fat mass (% change from baseline) [5] [%] | Lean mass (% change from baseline) [5] [%] | Fat mass (% change from baseline) ([5]; listed as semaglutide) [%] | Lean mass (% change from baseline) ([5]; listed as semaglutide) [%] | lean muscle mass ([6]; 3 weeks) | total weight loss ([6]; 3 weeks after treatment) | body weight [7] | decrease of circulating FSH levels [8] |
| --- | --- | --- | --- | --- | --- | --- | --- | --- | --- | --- | --- | --- | --- | --- | --- |
| P444: WT hActRIIA, 3 aa linker (GGG), IgG1 Fc; SEQ ID 173 [reference compound] | comparable activin A binding profile to P75 | near undetectable binding to BMP-9 | less neutralization (i.e., greater signal) than P75 | higher KD (lower affinity) than P75 | – | – | – | – | – | – | – | – | – | – | – |
| semaglutide [reference compound] | – | – | – | – | −17.5 | significantly decreased all white adipose tissue weights | no significant effect on muscle weights | −30.3 | −10.6 | −30.3 | −10.6 | significant loss of lean muscle mass | significant weight loss | decreased body weight | did not show a significant effect |
